Test results from patent US8178123B2, “Method for augmentation of intraepithelial and systemic exposure of therapeutic agents having substrate activity for cytochrome P450 enzymes and membrane efflux systems following vaginal and oral cavity administration” (Femina Pharma Incorporated, priority 2001, dated 2012).

Assays:
cytochrome P450 = experiment: Cytochrome P450-mediated oxidation of coumarin to 7α-hydroxycoumarin by rabbit liver microsomes; assay type: biochemical; conditions: 1% glycol ether
Protocol: To evaluate the effect of glycol ethers on cytochrome P450-mediated metabolism, enzymatic conversion of coumarin to its 7α-hydroxycoumarin oxidation product by rabbit liver microsomes in the presence and absence of 5% DGMEE, 1% DBMPE, and 1% DGMBE is determined according to a protocol described previously by Pearce and co-workers (Arch. Biochem. Biophys., 298, 211-225 (1992)).

P-glycoprotein = target: T1, P-glycoprotein (Oryctolagus cuniculus, UniProt Q6UUW3); experiment: Apical to basolateral transport of 14C-paclitaxel across rabbit intestinal mucosa with and without glycol ethers or verapamil; assay type: in vitro ADME
T1 construct: from tissue; host or cells: rabbit intestinal mucosa (tissue perfusion / diffusion cells)
T1 sequence (Q6UUW3 1-1279): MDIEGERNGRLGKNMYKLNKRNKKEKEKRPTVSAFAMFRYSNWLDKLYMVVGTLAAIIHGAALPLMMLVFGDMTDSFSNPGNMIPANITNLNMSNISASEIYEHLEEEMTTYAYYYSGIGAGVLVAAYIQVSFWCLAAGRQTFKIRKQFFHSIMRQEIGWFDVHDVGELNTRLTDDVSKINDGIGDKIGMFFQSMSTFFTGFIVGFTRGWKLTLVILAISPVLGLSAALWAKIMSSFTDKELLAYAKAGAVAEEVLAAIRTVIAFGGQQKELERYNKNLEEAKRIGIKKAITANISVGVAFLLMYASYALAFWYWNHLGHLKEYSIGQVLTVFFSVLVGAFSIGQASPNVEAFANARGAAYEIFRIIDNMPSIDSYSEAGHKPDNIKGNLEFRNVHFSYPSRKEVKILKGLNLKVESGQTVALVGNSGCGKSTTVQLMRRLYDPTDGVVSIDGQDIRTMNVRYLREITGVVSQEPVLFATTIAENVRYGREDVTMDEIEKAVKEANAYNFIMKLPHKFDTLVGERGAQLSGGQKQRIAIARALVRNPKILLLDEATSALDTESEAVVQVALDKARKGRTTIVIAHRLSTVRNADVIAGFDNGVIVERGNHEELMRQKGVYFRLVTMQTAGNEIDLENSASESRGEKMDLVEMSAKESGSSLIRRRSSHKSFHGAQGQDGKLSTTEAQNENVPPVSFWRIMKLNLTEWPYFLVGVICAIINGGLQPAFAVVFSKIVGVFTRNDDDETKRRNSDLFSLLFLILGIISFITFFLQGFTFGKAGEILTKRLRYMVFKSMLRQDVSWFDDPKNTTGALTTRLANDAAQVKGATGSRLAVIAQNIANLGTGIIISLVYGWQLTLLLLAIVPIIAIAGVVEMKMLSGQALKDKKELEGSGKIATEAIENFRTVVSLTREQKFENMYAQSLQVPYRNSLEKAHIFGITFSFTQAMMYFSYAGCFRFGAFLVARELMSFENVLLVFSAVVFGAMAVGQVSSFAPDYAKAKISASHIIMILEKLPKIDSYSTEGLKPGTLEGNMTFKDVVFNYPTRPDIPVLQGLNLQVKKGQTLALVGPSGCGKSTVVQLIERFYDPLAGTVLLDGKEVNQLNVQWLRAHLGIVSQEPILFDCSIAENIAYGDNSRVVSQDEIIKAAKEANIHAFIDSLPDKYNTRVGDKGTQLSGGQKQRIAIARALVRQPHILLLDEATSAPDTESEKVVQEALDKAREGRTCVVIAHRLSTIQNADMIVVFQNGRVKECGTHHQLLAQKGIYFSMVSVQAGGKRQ
Protocol: Briefly, fresh mucosal samples are collected from female, white New Zealand rabbits, are separated from underlying connective tissue, and are mounted into modified Franz-type diffusion cells (5 mm diameter). […] Radioactivity is determined by liquid scintillation counting using a Beckman LS 6500. Each transport experiment is performed in four replicate tissue samples. […] Individual and mean Papp values with corresponding standard deviations (S.D.) are calculated for each group. Statistical significance is tested by one-way analysis of variance (ANOVA) using Tukey's family error at p<0.05. […]

membrane efflux systems = experiment: Bidirectional transport of ritonavir across rabbit mucosa in diffusion cells (membrane efflux activity); assay type: in vitro ADME
Excerpt: To illustrate experimentally the functional differences in membrane efflux activity among the intestinal, vaginal, and buccal mucosal barriers, bidirectional transport of the protease inhibitor ritonavir is quantitatively assessed and results seen in FIG. 1 may be obtained (FIG. 1). Experimental procedures are described in Example 2.
Briefly, fresh mucosal samples are collected from female, white New Zealand rabbits, are separated from underlying connective tissue, and are mounted into modified Franz-type diffusion cells (5 mm diameter). Permeability studies from the apical to the basolateral as well as in the opposite direction are performed using continuous-flow perfusion chambers designed for mucosal tissue (Squier et al. J. Pharm. Sci., 86, 82-84 (1997)). ^3H-Ritonavir (˜3 μCi/mL) dissolved in 1 mL of 0.01 M PBS, pH 7.4, is applied to the donor compartment, and the perfusate in the received compartment is collected into scintillation vials through 16 hrs. Radioactivity is determined by liquid scintillation counting using a Beckman LS 6500. Each transport experiment is performed in four replicate tissue samples. Apparent permeability coefficients (Papp) are calculated from steady state flux according to Papp [cm/min]=(ΔQ/Δt)/Axc(0), where ΔQ/Δt=linear appearance rate of mass in the receiver, A=cross-sectional area (i.e., 0.20 cm^2), and c(0)=initial ritonavir concentration in the donor compartment at t=0. Individual and mean Papp values with corresponding standard deviations (S.D.) are calculated for each group. Statistical significance is tested by one-way analysis of variance (ANOVA) using Tukey's family error at p<0.05. To evaluate the contribution of membrane efflux system on ritonavir permeability Refflux was calculated as the ratio of Papp(basolateral-apical)/Papp(apical-basolateral).

CCCCOCCOCCO [DGMBE, diethylene glycol monobutyl ether]
reduction of formation of the 7α-hydroxycoumarin metabolite (cytochrome P450): about 42% | enhancement of intestinal absorption of paclitaxel (P-glycoprotein; 1% in transport buffer): 4.1 fold

CCCOCCOCCO [DGMPE, diethylene glycol monopropyl ether]
enhancement of intestinal absorption of paclitaxel (P-glycoprotein; 1% in transport buffer): 2.5 fold

CC(C)c1nc(CN(C)C(=O)N[C@H](C(=O)N[C@@H](Cc2ccccc2)C[C@H](O)[C@H](Cc2ccccc2)NC(=O)OCc2cncs2)C(C)C)cs1 [ritonavir]
Refflux compared with intestinal barrier (membrane efflux systems; buccal rabbit epithelium in vitro): significantly smaller | basolateral to apical flux relative to the opposite direction (Refflux) (membrane efflux systems; intestinal rabbit mucosa in vitro, 3H-ritonavir): 9.2 fold | Refflux compared with intestinal barrier (membrane efflux systems; vaginal rabbit epithelium in vitro): significantly smaller

CCOCCOCCO [DGMEE, diethylene glycol mono 2-ethyl ether]
enhancement of intestinal absorption of paclitaxel (P-glycoprotein; 5% in transport buffer): 1.8 fold
